The text below walks through data of article PMC8421406, “C9orf72-derived arginine-rich poly-dipeptides impede phase modifiers” (Nature Communications, 2021).

The test system of the assay is Kapβ2. Nature of the assay: Solution NMR (1H-13C methyl) of labelled Kapβ2. In kind it is binding. How it is done: The Kapβ2 expression plasmid was transformed into BL21(DE3) cells. The protein samples with ^1H,^13C-labeled methyl groups in deuterium background were prepared as described in a previous study. The cells were grown in medium with ^15NH4Cl (2 gL^−1, CIL) and ^2H7-glucose (2 g L^−1, CIL) in 99.9% ^2H2O (Isotec). The precursors for methyl groups of Ile, Val, and Leu, α-ketobutyric acid (50 mg L^−1) and α-ketoisovaleric acid (80 mg L^−1), and [^13CH3] methionine (50 mg L^−1) were added to the culture 1 h before the addition of IPTG. Protein expression was induced by the addition of 0.5 mM IPTG at OD600 ~ 0.6, followed by ~16 h of incubation at 25 °C. […] Protein concentration was determined spectrophotometrically at 280 nm using a corresponding extinction coefficient.
The isotopically labeled Kapβ2 was prepared in the NMR buffer containing 20 mM ^2H-Tris pH 7.4, 150 mM NaCl, 2 mM MgCl2, 2 mM DTT, and 2% glycerol, concentrated to 20 μM. […] Perturbation of the side chain methyl resonances were each monitored using ^1H-^13C heteronuclear multiple quantum coherence. […] The perturbations of the resonances were evaluated based on chemical shift change or intensity change. […]
In order to investigate the interaction between Kapβ2 and PR poly-dipeptide by NMR, the NMR spectra of the isotopically labeled Kapβ2 in the absence and presence of the synthetic peptide of PR20:HA were measured. […]

“Also recorded” adds a separate entry of the source. Where no end group is shown, it is not given here. HA = HA epitope tag

Regarding “PR20: twenty repeats of proline:arginine with an HA epitope tag at the C terminus, synthesized by SCRUM, Inc. (PRPRPRPRPRPRPRPRPRPRPRPRPRPRPRPRPRPRPRPR-{HA})”, for the setting “20 μM labelled Kapβ2, 20 °C, 20 mM Tris pH 7.4, 150 mM NaCl, 600/800 MHz”, the “Perturbation of Kapβ2 methyl resonances” value is “induced significant perturbations to several resonances of Kapβ2; also recorded: several resonances show significant perturbations induced only by PR20”. For the same substance, the “Binding site on Kapβ2 by NMR” value (comparison of perturbations by PR20, M9M and FUS-ΔNLS) was “partially occupy the NLS-binding site of Kapβ2”.
